How the values were obtained:
[1] = molecular target: nuclear BRD4-NUT foci in HCC2494 NUT midline carcinoma cells (Homo sapiens (Human), UniProt O60885+Q86Y26); test: Nut-foci formation assay (HCS); format: cell-based; conditions: 24 hours, NUT-foci immunofluorescence
Description: HCC2494 NUT midline carcinoma cells (expressing BRD4-NUT-fusion) were obtained from the University of Texas Southwestern and cultured in RPMI-1640 medium containing 10% Foetal Calf Serum at 37° C. in a humidified 5% CO2 incubator.
Compound-mediated inhibition of BRD4 activity was monitored by quantification of the number and intensity of nuclear BRD4-NUT foci using automated immunofluorescence microscopy. Briefly, 5000 cells in 20 μl fresh medium were seeded into Poly-D-Lysine-precoated 384-well plates and incubated overnight at 37° C. and 5% CO2, followed by addition of 5 μl medium containing compound dilutions at 5-fold their final intended concentration. Dose-response effects were assessed by 3-fold serial dilutions of the test compound, starting at 10 μM. Following incubation of the cells for 24 hours at 37° C. and 5% CO2, the cells were fixed by incubation with 3.7% formaldehyde for 10 min, followed by immunofluorescence staining using rabbit anti-NUT (Cell Signaling Technologies, Cat#3625) as primary, and AlexaFluor488-labeled goat anti-rabbit (Invitrogen, Cat#A11008) as secondary antibody (latter complemented with 1 μg/mL Hoechst33342 as DNA dye). Assay plates were imaged using the appropriate filter sets on the Cellomics VTi automated fluorescence microscopy platform (ThermoFisher Scientific) and the population average of the number of NUT-foci per nucleus is quantified using the Cellomics Spot Detection BioApplication image analysis algorithm (ThermoFisher Scientific). The effect of a particular test compound concentration on NUT-foci number and intensity is expressed as percentage of the value obtained for cells treated with vehicle only (DMSO, 0.1% final concentration), which was set as 100. Compound concentrations leading to half-maximal (IC50) inhibition of the aforementioned readout parameters were determined using standard four parameter curve fitting.

K-562 cells = test: Cell growth inhibition assay (CellTiter-Glo), K-562; format: cell-based, human; conditions: K-562, 4 days; for GI50: Homo sapiens, K562, 96 h, half-maximal growth inhibition; for K-562 TGI: total growth inhibition
Summary of the method: (§1)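 Leukemia cells were exposed for 4 days at 37 °C to 3-fold dilution series from 10 μM (0.1% DMSO), then viable cells were quantified by CellTiter-Glo ATP luminescence. Signal was corrected for background and a day-0 plate, with vehicle set at 100% and medium-only at −100%. IC50 and TGI were obtained by four-parameter fit.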

MV-4-11 cells = test: Cell growth inhibition assay (CellTiter-Glo), MV-4-11; format: cell-based, human; conditions: MV-4-11, 4 days; for GI50: Homo sapiens, MV4-11, 96 h, half-maximal growth inhibition; for MV-4-11 TGI: total growth inhibition
Summary of the method: as §1

| Compound | IC50 [1] [nM] | GI50 (K-562 cells) [nM] | K-562 TGI (K-562 cells) [nM] | GI50 (MV-4-11 cells) [nM] | MV-4-11 TGI (MV-4-11 cells) [nM] |
| --- | --- | --- | --- | --- | --- |
| Cc1cc(N2C(=O)c3c(C4CC4)nn(C)c3C2c2ccc(Cl)cc2)cn2c(C(F)F)nnc12 (racemic) [Example 3, 6-(4-chlorophenyl)-3-cyclopropyl-5-(3-(difluoromethyl)-8-methyl-[1,2,4]triazolo[4,3-a]pyridin-6-yl)-1-methyl-5,6-dihydropyrrolo[3,4-c]pyrazol-4(1H)-one] | 8.27 | 73.5 | >10000 | 9.49 | 23.45 |
| COCCn1nc(C2CC2)c2c1C(c1ccc(Cl)cc1)N(c1cc(C)c3nnc(C)n3c1)C2=O (racemic) [Example 4, 6-(4-chlorophenyl)-3-cyclopropyl-5-(3,8-dimethyl-[1,2,4]triazolo[4,3-a]pyridin-6-yl)-1-(2-methoxyethyl)-5,6-dihydropyrrolo[3,4-c]pyrazol-4(1H)-one] | 9.04 | 56.8 | >10000 | 9.36 | 20.8 |
| COc1cc(N2C(=O)c3c(C4CC4)nn(C)c3C2c2ccc(Cl)cc2)cn2c(C)nnc12 (racemic) [Example 5, 6-(4-chlorophenyl)-3-cyclopropyl-5-(8-methoxy-3-methyl-[1,2,4]triazolo[4,3-a]pyridin-6-yl)-1-methyl-5,6-dihydropyrrolo[3,4-c]pyrazol-4(1H)-one] | 36 | 373 | >10000 | 64.9 | 104 |
| Cc1cc(N2C(=O)c3c(C4CC4)nn(C)c3C2c2ccc(Cl)cc2)cn2c(CF)nnc12 (racemic) [Example 16, 6-(4-chlorophenyl)-3-cyclopropyl-5-(3-(fluoromethyl)-8-methyl-[1,2,4]triazolo[4,3-a]-pyridin-6-yl)-1-methyl-5,6-dihydropyrrolo[3,4-c]pyrazol-4(1H)-one] | 12.1 | 122 | >10000 | 6.07 | 11.3 |
| Cc1cc(N2C(=O)c3c(C4CC4)nn(C)c3C2c2ccc(Cl)cc2)cn2c(C)nnc12 (stereo not shown) [Example 1, 6-(4-chlorophenyl)-3-cyclopropyl-5-(3,8-dimethyl-[1,2,4]triazolo[4,3-a]pyridin-6-yl)-1-methyl-5,6-dihydropyrrolo[3,4-c]pyrazol-4(1H)-one] | 16.2 | 51.9 | >10000 | 5.42 | 10.7 |
| Cc1cc(N2C(=O)c3c(C4CC4)nn(C)c3[C@H]2c2ccc(Cl)cc2)cn2c(C)nnc12 [Example 2, (R)-6-(4-chlorophenyl)-3-cyclopropyl-5-(3,8-dimethyl-[1,2,4]triazolo[4,3-a]pyridin-6-yl)-1-methyl-5,6-dihydropyrrolo[3,4-c]pyrazol-4(1H)-one] | 4.71 | 29.2 | >10000 | 4.31 | 11.21 |
| COc1cc(N2C(=O)c3c(C4CC4)nn(C)c3C2c2ccc(Cl)cc2)cc2c1nnn2C (stereo not shown) [Example 6] | 54.8 | 204 | >10000 | 44.5 | 90.25 |
| Cc1cc(N2C(=O)c3c(C4CC4)nn(C)c3[C@H]2c2ccc(Cl)cc2)cn2c(C(F)F)nnc12 [Example 7, (R)-6-(4-chlorophenyl)-3-cyclopropyl-5-(3-(difluoromethyl)-8-methyl-[1,2,4]triazolo-[4,3-a]pyridin-6-yl)-1-methyl-5,6-dihydropyrrolo[3,4-c]pyrazol-4(1H)-one] | 2.14 | 46.3 | >10000 | 2.45 | 6.275 |
| COCCn1nc(C2CC2)c2c1C(c1ccc(Cl)cc1)N(c1cc(C)c3nnc(CF)n3c1)C2=O (stereo not shown) [Example 18, 6-(4-chlorophenyl)-3-cyclopropyl-5-(3-(fluoromethyl)-8-methyl-[1,2,4]triazolo[4,3-a]-pyridin-6-yl)-1-(2-methoxyethyl)-5,6-dihydropyrrolo[3,4-c]pyrazol-4(1H)-one] | 3.65 | 139 | >10000 | 6.73 | 13.25 |
| Cc1nnc2c(NC(=O)OC(C)(C)C)cc(N3C(=O)c4c(C5CC5)nn(C)c4C3c3ccc(Cl)cc3)cn12 (stereo not shown) [Example 27, tert-butyl (6-(6-(4-chlorophenyl)-3-cyclopropyl-1-methyl-4-oxopyrrolo[3,4-c]pyrazol-5(1H,4H,6H)-yl)-3-methyl-[1,2,4]triazolo[4,3-a]pyridin-8-yl)carbamate] | 22.4 | 164 | >10000 | 11.1 | 22.6 |
| CCOC(=O)Nc1cc(N2C(=O)c3c(C4CC4)nn(C)c3C2c2ccc(Cl)cc2)cn2c(C)nnc12 (stereo not shown) [Example 29, ethyl (6-(6-(4-chlorophenyl)-3-cyclopropyl-1-methyl-4-oxopyrrolo[3,4-c]pyrazol-5-(1H,4H,6H)-yl)-3-methyl-[1,2,4]triazolo[4,3-a]pyridin-8-yl)carbamate] | 2.2 | 23.6 | >10000 | 1.13 | 1.97 |

From patent US9624247B2, “Pyrazolo-pyrrolidin-4-one derivatives as bet inhibitors and their use in the treatment of disease” (NOVARTIS AG, priority 2013, dated 2017)
